# Results reported in PubChem BioAssay AID2060623 (Molecular Pharmacology Branch, DTP, NCI, 2025).
# “And” between values parts separate entries of the source, which are not always exact repeats. Equal values may be shown once.
# Tested on: 227483-062-R1-J1-PDC complex spheroids with HUVEC/MSC, viability
# Assay: Anticancer human tumor 227483-062-R1-J1-PDC patient-derived pancreatic carcinoma cell line growth inhibition [CLK]
# Settings: for viability, T/C: stronger effect = lower value
# Procedure, shortened: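 Multi-cell-type spheroids combined patient-derived tumor cells with HUVEC endothelial cells and human mesenchymal stem cells. Paired agents were dosed in half-log steps down from about clinical Cmax, or from 10 microM where Cmax was unknown.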
# 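Also: spheroids exposed to compounds for seven days before readout.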
# 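For viability, T/C in this document: percent of DMSO vehicle control luminescence as 100% viability.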
smiles,measurement,setting,value
C=CC(=O)Nc1cc(Nc2nccc(-c3cn(C)c4ccccc34)n2)c(OC)cc1N(C)CCN(C)C + CN1CCN(c2cc(C(=O)Nc3cc4cc(-c5cnn(C)c5)ccc4cn3)ccn2)CC1,IC50,"curve of first compound, second compound 0.0316 µM",> 300 nM
same,IC50,"curve of first compound, second compound 0.1 µM",> 300 nM
same,IC50,"curve of first compound, second compound 0.316 µM",< 0.949 nM
same,IC50,"curve of first compound, second compound 1 µM",< 0.949 nM
same,IC50,"curve of first compound, second compound 3.16 µM",< 0.949 nM
same,IC50,"curve of first compound, second compound 10 µM",< 0.949 nM
same,"viability, T/C","second compound 0.0316 µM, first compound 0.000949 µM",101%
same,"viability, T/C","second compound 0.0316 µM, first compound 0.003 µM",104%
same,"viability, T/C","second compound 0.0316 µM, first compound 0.00949 µM",117%
same,"viability, T/C","second compound 0.0316 µM, first compound 0.03 µM",99.1%
same,"viability, T/C","second compound 0.0316 µM, first compound 0.0949 µM",87.5%
same,"viability, T/C","second compound 0.0316 µM, first compound 0.3 µM",79.2%
same,"viability, T/C","second compound 0.1 µM, first compound 0.000949 µM",71.5%
same,"viability, T/C","second compound 0.1 µM, first compound 0.003 µM",64.6%
same,"viability, T/C","second compound 0.1 µM, first compound 0.00949 µM",61.5%
same,"viability, T/C","second compound 0.1 µM, first compound 0.03 µM",77%
same,"viability, T/C","second compound 0.1 µM, first compound 0.0949 µM",68%
same,"viability, T/C","second compound 0.1 µM, first compound 0.3 µM",56%
same,"viability, T/C","second compound 0.316 µM, first compound 0.000949 µM",4.77%
same,"viability, T/C","second compound 0.316 µM, first compound 0.003 µM",5.57%
same,"viability, T/C","second compound 0.316 µM, first compound 0.00949 µM",5.48%
same,"viability, T/C","second compound 0.316 µM, first compound 0.03 µM",5.73%
same,"viability, T/C","second compound 0.316 µM, first compound 0.0949 µM",8.02%
same,"viability, T/C","second compound 0.316 µM, first compound 0.3 µM",4.25%
same,"viability, T/C","second compound 1 µM, first compound 0.000949 µM",3.69%
same,"viability, T/C","second compound 1 µM, first compound 0.003 µM",1.6%
same,"viability, T/C","second compound 1 µM, first compound 0.00949 µM",2.26%
same,"viability, T/C","second compound 1 µM, first compound 0.03 µM",4.39%
same,"viability, T/C","second compound 1 µM, first compound 0.0949 µM",2.66%
same,"viability, T/C","second compound 1 µM, first compound 0.3 µM",1.57%
same,"viability, T/C","second compound 3.16 µM, first compound 0.000949 µM",3.65%
same,"viability, T/C","second compound 3.16 µM, first compound 0.003 µM",4.21%
same,"viability, T/C","second compound 3.16 µM, first compound 0.00949 µM",3%
same,"viability, T/C","second compound 3.16 µM, first compound 0.03 µM",7.42%
same,"viability, T/C","second compound 3.16 µM, first compound 0.0949 µM",2.8%
same,"viability, T/C","second compound 3.16 µM, first compound 0.3 µM",5.59%
same,"viability, T/C","second compound 10 µM, first compound 0.000949 µM",3.23%
same,"viability, T/C","second compound 10 µM, first compound 0.003 µM",6.58%
same,"viability, T/C","second compound 10 µM, first compound 0.00949 µM",2.57%
same,"viability, T/C","second compound 10 µM, first compound 0.03 µM",4.96%
same,"viability, T/C","second compound 10 µM, first compound 0.0949 µM",2.09%
same,"viability, T/C","second compound 10 µM, first compound 0.3 µM",1.83%
CCCS(=O)(=O)Nc1ccc(F)c(C(=O)c2c[nH]c3ncc(-c4ccc(Cl)cc4)cc23)c1F,"viability, T/C",compound 0.0316 µM,101% and 92.4%
same,"viability, T/C",compound 0.1 µM,128% and 96.7%
same,"viability, T/C",compound 0.316 µM,106% and 92.3%
same,"viability, T/C",compound 1 µM,125% and 99%
same,"viability, T/C",compound 3.16 µM,129% and 98.8%
same,"viability, T/C",compound 10 µM,107% and 80.7%
same,IC50,curve of compound,> 10000 nM
